From patent US20230398118A1, “METHODS OF TREATING CARDIOVASCULAR-RELATED DISEASE” (Keros Therapeutics, Inc., priority 2020, published 2023)

Experiments:
Format in all cases: in vivo, human
[1] = Pharmacokinetics after single and multiple oral doses
Excerpt: (§1) The primary objectives of this study were to a) evaluate safety and tolerability of escalating doses of the compound of Formula I-11 administered as single and multiple oral doses in healthy male volunteers and healthy postmenopausal female volunteers and b) evaluate the PK parameters following escalating doses of the compound of Formula I-11 administered as single and multiple oral doses. The […] secondary objective of this study was to evaluate the pharmacodynamic (PD) parameters following escalating doses of the compound of Formula I-11 administered as single and multiple oral doses. This study was conducted in two parts.
(§2) Participants in Part 1 received a single oral dose of the compound of Formula I-11 or placebo on Day 1 and serial PK samples were collected. Baseline assessments were performed on day −1 prior to dosing. Samples were collected for determination of pharmacodynamic parameters at pre-dose daily and up to 24 hours post dose (day 2) after a single oral dose of the compound of Formula I-11. Participants remained at the study site for observation for 24 hours post-dose through the PK sample collection on Day 2. Participants returned to the site for the 48, 72, and 120-hour post-dose sample collection on Days 3, 4, and 6. Safety was evaluated by a Safety Review Committee prior to escalation to the next dose level cohort.
Participants in Part 2, Cohorts 1 through 3, received a daily oral dose of the compound of Formula I-11 (50, 100, or 200 mg liquid formulation respectively) or placebo for 7 days. A daily oral dose of the compound of Formula I-11 or placebo in participants in Part 2, Cohort 4 (350 mg liquid formulation) was planned for 14 days but was discontinued early in all subjects, either by the Investigator because of AEs, or by the Sponsor. A decision was made by the Sponsor to discontinue dosing of the entire cohort based on the frequency of AEs and laboratory abnormalities after Day 9. […] Safety was evaluated by a Safety Review Committee prior to escalation to the next dose level cohort. […]

[2] = test system: healthy male volunteers and healthy postmenopausal female volunteers; assay: Phase 1 safety and tolerability, single and multiple ascending oral doses
Excerpt: A total of 131 healthy, males aged 18 to 60 years and post-menopausal females aged 45 to 60 years, participated in this study.
as §1
Part 1 included 80 participants (10 cohorts of 8 participants each). Male and female participants who met the eligibility criteria were randomly assigned, in a ratio of 3:1 to receive the compound of Formula I-11 or matching placebo, N=6 and 2 per dose cohort, respectively. Participant enrollment included […] males and 12.5% females (postmenopausal). The IMP formulation used in Cohorts 1 through 6 was an oral capsule (doses of 1, 3, 10, 30, 100, or 300 mg capsule formulation). An oral liquid formulation was evaluated in Cohorts 7 through 10 (doses of 30, 100, 300 or 450 mg liquid formulation).
as §2
Part 2, Cohorts 1 through 4, included 41 participants (4 cohorts of 10 participants each and 1 additional placebo participant in Cohort 1). Male and female participants who met the eligibility criteria were randomly assigned at a ratio of 4:1 to receive either the compound of Formula I-11 oral liquid formulation or matching placebo, N=8 and 2 per dose cohort respectively. Forty (97.6%) males and 1 (2.4%) female (placebo) participant were enrolled.
(§3) Participants in Part 2, Cohorts 1 through 3, received a daily oral dose of the compound of Formula I-11 (50, 100, or 200 mg liquid formulation respectively) or placebo for 7 days. A daily oral dose of the compound of Formula I-11 or placebo in participants in Part 2, Cohort 4 (350 mg liquid formulation) was planned for 14 days but was discontinued early in all subjects, either by the Investigator because of AEs, or by the Sponsor. A decision was made by the Sponsor to discontinue dosing of the entire cohort based on the frequency of AEs and laboratory abnormalities after Day 9. In Cohort 4, participants on the compound of Formula I-11 received daily oral dosing of 350 mg for up to 7 days; one placebo participant received daily oral dosing for 9 days. Samples were collected for determination of pharmacodynamic parameters at pre-dose daily and to 24 hours post dose (day 8) while on drug. Daily trough PK samples were collected for the determination of steady-state from Day 2 to Day 12 or 13. Participants returned to the site on Day 30 for an end-of-study visit. Safety was evaluated by a Safety Review Committee prior to escalation to the next dose level cohort.
Part 2, MAD Cohort 5 participants received either the compound of Formula I-11, 100 mg (n=8) or placebo (n=2) on Days 1, 2, 3, 4, 5, 6, 7. The last dose was administered on the morning of Day 7. […]

[3] = test system: healthy male volunteers and healthy postmenopausal female volunteers; assay: Pharmacodynamics: serum cholesterol, LDL and HDL cholesterol by standard clinical laboratory tests
Excerpt: as §1, §2, §3
Pharmacodynamic endpoints: Protocol-specified endpoints were assessed at baseline and regularly throughout the study period. These assessments included serum cholesterol, LDL, and HDL cholesterol. Measurements of all pharmacodynamic end points were made using standard clinical laboratory tests.

[4] = repeated oral administration, all MAD cohorts (1-5), Day 7

## COc1cc2c(-c3cnn4cc(N5CCC(N6CCN(C)CC6)CC5)cnc34)ccnc2cc1F [Formula I-11]
[1]; both sexes, in vivo, human, oral
  half-life: 10 to 15 h
[1]; multiple doses from 50-200 mg
  Mean AUC, dose dependence: increased linearly with greater than dose-proportional increases
  Mean Cmax, dose dependence: increased linearly with greater than dose-proportional increases
[2]; after 7 daily oral doses (Part 2, MAD)
  dose level well tolerated: up to 200 mg
[2]; both, human, in vivo
  subjects with increases in ALT >2x ULN: 3 subjects
[2]; in vivo
  AEs reported and higher than placebo: headache, nausea, vomiting, diarrhea, gastroenteritis, chills, pyrexia, myalgia, decreased appetite, lymphopenia, neutropenia, and liver enzyme increases
  serious adverse events: no serious adverse events
  severity of the majority of AEs: mild or moderate in severity
[2]; male, human, in vivo
  participants who discontinued the study: 3 (9.4%) participants
[2]; single oral dose (Part 1, SAD)
  dose level well tolerated: up to 450 mg
[3]; all MAD cohorts, Day 7
  decrease in LDL compared with HDL cholesterol: greater decreases in LDL than HDL cholesterol
[3]; repeated oral administration, MAD Cohorts 1-4, across the one-week dosing period
  total cholesterol: decreases in total cholesterol
[3]; [4]
  HDL cholesterol: decreases in HDL cholesterol
  LDL cholesterol: decreases in LDL cholesterol
[3]; single oral administration, SAD cohorts, within 24 hours
  total cholesterol: decreases in total cholesterol
